Calls of active or inactive are those of the source.

The target in data set [1] is T1, Replicase polyprotein 1ab (Severe acute respiratory syndrome coronavirus 2, UniProt P0DTD1). Briefly: Inhibition of SARS-CoV-2 PL protease preincubated for 30 mins followed by substrate addition measured after 3 hrs.
A short description of data set [2]: (§1) Cytotoxicity against African green monkey Vero E6 cells incubated for 48 hrs by Neutral Red method. Type of data set: toxicity, cell-based, Vero C1008. The note with it: chlorocebus sabaeus, Vero E6 cells.
Data set [3] relates to SARS-CoV-2. As to the kind of experiment: microbe, parasite or virus in culture. The class given is functional, organism-based, Vero E6. The note with it: Severe acute respiratory syndrome coronavirus 2, Vero C1008, 24 h.
Data set [4] is described as follows: Metabolic stability in mouse liver microsomes assessed as half life at 1 uM incubated for 60 mins by LC/MS/MS analysis. Type of data set: ADME, Microsome. As to conditions: for half-life at 1 µM: liver microsomes. A general note: Liver microsomes are a subcellular fraction often used to study metabolism.
The next data set concerns Vero C1008. The data set is described as §1. Type of data set: toxicity, cell-based. The note with it: chlorocebus sabaeus, vero c1008, 48 h.
Data set [5] is described as follows: Cmax in C57BL/6J mouse at 50 mg/kg, po measured 5 hrs by LC/MS/MS analysis. The note with it: in vivo. Type of data set: ADME, organism-based.
Data set [6] has as its target Ubiquitin carboxyl-terminal hydrolase 7 (Homo sapiens) (UniProt Q93009). Briefly: Inhibition of N-terminal polyhis/GST-tagged full-length human USP7 (1 to 1102 residues) expressed in baculovirus infected insect cells using Ub-AMC as substrate upto 100 uM. The note with it: Insect cell.
In data set [7] the target is T1, Replicase polyprotein 1ab. As to the kind of experiment: Inhibition of SARS-CoV-2 PL protease using ISG15-AMC as substrate preincubated for 30 mins followed by substrate addition measured for 1 hr.
Data set [8] addresses Ubiquitin carboxyl-terminal hydrolase 14 (Homo sapiens) (UniProt P54578). Briefly: Inhibition of N-terminal 6His-tagged recombinant human USP14 (91 to 494 residues) expressed in Escherichia coli using Ub-AMC as substrate upto 100 uM.
Data set [9] addresses T1, Replicase polyprotein 1ab. As to the kind of experiment: Inhibition of SARS-CoV-2 PL protease using Ub-AMC as substrate preincubated for 30 mins followed by substrate addition measured for 1 hr.
Data set [10] concerns SARS-CoV-2. As to the kind of experiment: Antiviral activity against SARS-CoV-2 XBB1.16 infected in human Caco-2 cells expressing hTMPRSS/hACE2 incubated for 48 hrs in presence of CP-100356 by crystal violet staining based analysis. The note with it: Severe acute respiratory syndrome coronavirus 2, XBB1.16, Caco-2, 48 h. Type of data set: functional, organism-based.
The test system of data set [11] is SARS-CoV-2. As to the kind of experiment: Antiviral activity against SARS-CoV-2 JN.1 infected in human Caco-2 cells expressing hTMPRSS/hACE2 incubated for 48 hrs in presence of CP-100356 by crystal violet staining based analysis. The class given is functional, organism-based. As to conditions: Severe acute respiratory syndrome coronavirus 2, JN.1, Caco-2, 48 h.

The test system of data set [12] is SARS-CoV-2. Briefly: Selectivity ratio of EC50 for SARS-CoV-2 XBB1.16 infected in human Caco-2 cells expressing hTMPRSS/hACE2 to EC50 for wild-type SARS-CoV-2 WA1 infected in human Caco-2 cells expressing hTMPRSS/hACE2. The class given is functional.
In data set [13] the test system is SARS-CoV-2. Briefly: Selectivity ratio of EC50 for SARS-CoV-2 JN.1 infected in human Caco-2 cells expressing hTMPRSS/hACE2 to EC50 for wild-type SARS-CoV-2 WA1 infected in human Caco-2 cells expressing hTMPRSS/hACE2. The class given is functional.
For data set [14], the system named is SARS-CoV-2. Briefly: Antiviral activity against wild-type SARS-CoV-2 WA1 infected in human Caco-2 cells expressing hTMPRSS/hACE2 incubated for 48 hrs in presence of CP-100356 by crystal violet staining based analysis. Type of data set: functional, organism-based. The note with it: Severe acute respiratory syndrome coronavirus 2, WA1, Caco-2, 48 h.
Data set [15] concerns SARS-CoV-2. Briefly: microbe, parasite or virus in culture. The class given is functional, organism-based. The note with it: Severe acute respiratory syndrome coronavirus 2, Caco-2, 24 h.
A short description of data set [16]: AUClast in C57BL/6J mouse at 50 mg/kg, ip measured 5 hrs by LC/MS/MS analysis. Type of data set: ADME, organism-based. As to conditions: in vivo.
Data set [17] in a line: Cmax in C57BL/6J mouse at 50 mg/kg, ip measured 0.5 hrs by LC/MS/MS analysis. Type of data set: ADME, organism-based. The note with it: in vivo.

Chain of Ubiquitin carboxyl-terminal hydrolase 7 (Homo sapiens) (Q93009 whole entry, looked up, the tested form may be a part): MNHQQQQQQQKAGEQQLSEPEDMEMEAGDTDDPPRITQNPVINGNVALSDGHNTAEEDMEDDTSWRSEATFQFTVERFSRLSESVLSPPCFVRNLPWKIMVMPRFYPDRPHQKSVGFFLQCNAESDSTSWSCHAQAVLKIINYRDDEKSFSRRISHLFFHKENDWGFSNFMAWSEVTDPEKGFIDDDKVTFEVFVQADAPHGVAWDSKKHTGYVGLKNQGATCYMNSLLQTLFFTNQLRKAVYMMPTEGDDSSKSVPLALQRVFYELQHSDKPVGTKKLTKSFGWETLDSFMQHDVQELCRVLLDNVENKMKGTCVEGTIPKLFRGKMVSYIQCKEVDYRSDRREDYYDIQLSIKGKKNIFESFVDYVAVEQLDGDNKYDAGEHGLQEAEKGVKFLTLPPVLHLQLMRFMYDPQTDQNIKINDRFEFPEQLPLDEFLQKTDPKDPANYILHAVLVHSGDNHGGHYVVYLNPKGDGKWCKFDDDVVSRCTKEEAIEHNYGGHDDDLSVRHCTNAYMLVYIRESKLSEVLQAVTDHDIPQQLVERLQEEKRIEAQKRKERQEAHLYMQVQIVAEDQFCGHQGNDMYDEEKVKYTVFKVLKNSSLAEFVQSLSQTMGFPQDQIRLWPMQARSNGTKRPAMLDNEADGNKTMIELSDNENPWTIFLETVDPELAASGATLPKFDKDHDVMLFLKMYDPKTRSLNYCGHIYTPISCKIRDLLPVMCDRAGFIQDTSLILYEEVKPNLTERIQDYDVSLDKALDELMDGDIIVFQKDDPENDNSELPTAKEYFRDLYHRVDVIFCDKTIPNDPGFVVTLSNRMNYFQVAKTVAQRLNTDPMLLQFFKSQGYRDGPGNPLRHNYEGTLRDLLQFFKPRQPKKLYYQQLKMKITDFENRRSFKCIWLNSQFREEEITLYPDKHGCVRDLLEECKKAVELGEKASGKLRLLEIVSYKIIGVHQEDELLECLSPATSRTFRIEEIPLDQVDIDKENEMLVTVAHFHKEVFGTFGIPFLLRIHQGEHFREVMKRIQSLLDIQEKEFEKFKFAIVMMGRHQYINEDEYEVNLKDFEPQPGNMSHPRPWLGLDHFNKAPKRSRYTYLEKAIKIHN
Chain of Ubiquitin carboxyl-terminal hydrolase 14 (Homo sapiens) (P54578 whole entry, the tested form may be a part): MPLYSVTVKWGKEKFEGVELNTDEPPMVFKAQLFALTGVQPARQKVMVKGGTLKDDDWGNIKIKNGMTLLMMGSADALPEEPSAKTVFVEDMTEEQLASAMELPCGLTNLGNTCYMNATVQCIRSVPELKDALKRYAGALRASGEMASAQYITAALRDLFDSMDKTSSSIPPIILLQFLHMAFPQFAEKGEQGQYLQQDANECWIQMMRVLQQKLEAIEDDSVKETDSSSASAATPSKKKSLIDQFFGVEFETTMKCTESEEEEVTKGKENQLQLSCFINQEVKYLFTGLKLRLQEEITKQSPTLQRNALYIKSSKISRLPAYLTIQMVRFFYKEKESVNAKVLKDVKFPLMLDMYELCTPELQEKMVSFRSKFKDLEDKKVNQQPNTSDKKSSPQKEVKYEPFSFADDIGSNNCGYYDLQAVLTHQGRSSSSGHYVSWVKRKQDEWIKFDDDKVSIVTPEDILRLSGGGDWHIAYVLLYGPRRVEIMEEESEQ

Take `CCn1ccc(-c2cc(-c3cnn(C)c3)cc([C@@H](C)NC(=O)c3ccccc3CNC(=O)CNC(=O)/C=C/C(=O)N3CC(F)(F)C3)c2)n1`: the IC50 (usually the midpoint of a concentration-inhibition curve) in data set [1] is 0.5 µM. In data set [2], the CC50 (in general, the concentration that lowers cell viability or growth by half) at 48 h was greater than 250 µM.

`CCn1ccc(-c2cc(-c3cnn(C)c3)cc([C@@H](C)NC(=O)c3ccccc3CCC(=O)NNC(=O)/C=C/C(=O)OC(C)(C)C)c2)n1` had an IC50 in data set [1] of 0.1 µM. Besides, the EC50 (as a rule, the concentration that produces a half-maximal response) in the data set with SARS-CoV-2 [3] was 0.0992 µM.

`CCn1ccc(-c2cc(-c3cnn(C)c3)cc([C@@H](C)NC(=O)c3ccccc3CCC(=O)NNC(=O)/C=C/C(=O)NC34CC(C3)C4)c2)n1`: the IC50 in data set [1] worked out at 0.1 µM. In data set [2], this compound yielded a CC50 at 48 h greater than 250 µM. This compound yielded an EC50 in the data set on SARS-CoV-2 [3] of 6.13 µM.

`CCOC(=O)/C=C/C(=O)NNC(=O)CCc1ccccc1C(=O)N[C@H](C)c1cc(-c2cnn(C)c2)cc(-c2ccn(CC)n2)c1`: half-maximal inhibition in [1] (IC50) required 0.1 µM.

For the compound `CCn1ccc(-c2cc(-c3cnn(C)c3)cc([C@@H](C)NC(=O)c3ccccc3CCC(=O)NNC(=O)/C=C/C(=O)N(C)C)c2)n1`, in data set [1], the IC50 worked out at 0.7 µM. In [2], this compound returned a CC50 at 48 h greater than 250 µM.

In the case of `C#CCNC(=O)CCc1ccccc1C(=O)N[C@H](C)c1cc(-c2cnn(C)c2)cc(-c2ccn(CC)n2)c1`, in [1], the IC50 came to 5 µM. For the same compound, in data set [2], the CC50 at 48 h is 256 µM.

In turn, `CCn1ccc(-c2cc(-c3cnn(C)c3)cc([C@@H](C)NC(=O)c3ccccc3CCC(=O)NNC(=O)/C=C/CN(C)C)c2)n1` came in with an IC50 in data set [1] greater than 5 µM. Further, the CC50 at 48 h in [2] was greater than 250 µM.

Consider `CCn1ccc(-c2cc(-c3cnn(C)c3)cc(C3(NC(=O)c4ccccc4CNC(=O)CNC(=O)/C=C/C(=O)N4CC(F)(F)C4)CC3)c2)n1`, for which the IC50 in [1] worked out at 1.6 µM. In [2], this compound registered a CC50 at 48 h greater than 250 µM.

Regarding `C=CC(=O)NNC(=O)CCc1ccccc1C(=O)N[C@H](C)c1cc(-c2cnn(C)c2)cc(-c2ccn(CC)n2)c1`, 3.1 µM corresponded to half-maximal inhibition in [1] (IC50). Besides, in [2], the CC50 at 48 h is greater than 250 µM.

Regarding `CCn1ccc(-c2cc(-c3cnn(C)c3)cc([C@@H](C)NC(=O)c3ccccc3CCC(=O)NNC(=O)/C=C/C(=O)NC3CC3)c2)n1`, in [4], the half-life (usually the time needed for the level to fall by half in the phase considered) at 1 µM was greater than 2.42 h. The compound also yielded an IC50 in data set [1] of 0.2 µM. In addition, the CC50 at 48 h in data set [2] is greater than 250 µM. This compound also yielded an EC50 in the data set with SARS-CoV-2 [3] of 5.2 µM.

`CCOC(=O)/C=C/C(=O)NCC(=O)NCc1ccccc1C(=O)NC1(c2cc(-c3cnn(C)c3)cc(-c3ccn(CC)n3)c2)CC1` returned an IC50 in [1] of 1.1 µM. The compound further registered a CC50 at 48 h in [2] greater than 250 µM.

`CCn1ccc(-c2cc(-c3cnn(C)c3)cc([C@@H](C)NC(=O)c3ccccc3CCC(=O)NNC(=O)CCl)c2)n1` showed an IC50 in data set [1] of 0.3 µM. This compound displayed a 50% cytotoxic concentration (CC50) in the data set with Vero C1008 greater than 250 µM.

On to `CCn1ccc(-c2cc(-c3cnn(C)c3)cc([C@@H](C)NC(=O)c3ccccc3CCC(=O)NNC(=O)/C=C/C(=O)N3CCC3)c2)n1`, for which, in data set [4] (microsomes, 1 h, 1 µM), the t1/2 is greater than 2.42 h. The compound also showed an IC50 in data set [1] of 0.1 µM. For the same compound, the Cmax (commonly the maximum level reached in the sampled fluid or tissue) in data set [5] is less than 10 ng/mL. The same compound gave a CC50 at 48 h in data set [2] greater than 250 µM. The compound also showed an EC50 with SARS-CoV-2 [3] of 3.2 µM.

`CCn1ccc(-c2cc(-c3cnn(C)c3)cc([C@@H](C)NC(=O)c3ccccc3CCC(=O)NNC(=O)C(Cl)Cl)c2)n1` displayed an IC50 in [1] of 2.2 µM. In data set [2], this compound yielded a CC50 at 48 h greater than 250 µM.

For `CCn1ccc(-c2cc(-c3cnn(C)c3)cc([C@@H](C)NC(=O)c3ccccc3CCC(=O)NNC(=O)/C=C/C(=O)N3CC(F)(F)C3)c2)n1`, the inhibition entry in data set [6] and in data set [8] was “inactive” each time. In addition, 0.1 µM corresponded to half-maximal inhibition in data set [1] (IC50). For the same compound, the Ki (usually a measure of affinity in units of concentration, obtained from inhibition or displacement) in data set [7] stood at 0.00136 µM; in [9] it was 0.00025 µM. Further, in the data set on SARS-CoV-2 [3], the midpoint of the response, the EC50, lay at 0.185 µM.

The compound `CCn1ccc(-c2cc(-c3cnn(C)c3)cc([C@@H](C)NC(=O)c3ccccc3CCC(=O)NNC(C)=O)c2)n1` gave a CC50 at 48 h in [2] greater than 250 µM.

On to `CCn1ccc(-c2cc(-c3cnn(C)c3)cc([C@@H](C)NC(=O)c3ccccc3CCC(=O)NNC(=O)/C=C/C(=O)N3CC(C(F)(F)F)C3)c2)n1`, for which, in data set [1], the midpoint of inhibition, the IC50, lay at 0.1 µM.

The compound `C=CS(=O)(=O)NNC(=O)CCc1ccccc1C(=O)N[C@H](C)c1cc(-c2cnn(C)c2)cc(-c2ccn(CC)n2)c1` registered an IC50 in data set [1] of 0.3 µM. The compound also displayed a CC50 with Vero C1008 of 31 µM.

As to `CC(C)(C)[C@H](NC(=O)C(F)(F)F)C(=O)N1C[C@H]2[C@@H]([C@H]1C(=O)N[C@H](C#N)C[C@@H]1CCNC1=O)C2(C)C`, the EC50 in the data set on SARS-CoV-2 [10] was found to be 0.0371 µM; in the data set on SARS-CoV-2 [11], 0.096 µM; in the data set with SARS-CoV-2 [14] it was 0.0339 µM. In addition, the “Ratio EC50” value in the data set with SARS-CoV-2 [12] worked out at 1.1; in the data set on SARS-CoV-2 [13], 2.8.

`CCn1ccc(-c2cc(-c3cnn(C)c3)cc([C@@H](C)NC(=O)c3cc(OCCN(C)C)ccc3C)c2)n1` showed an EC50 in the data set on SARS-CoV-2 [15] of 0.42 µM.

`CCn1ccc(-c2cc(-c3cnn(C)c3)cc([C@@H](C)NC(=O)c3ccccc3CCC(=O)NNC(=O)/C=C/C(=O)NC3CC(F)(F)C3)c2)n1`: in data set [4], the half-life at 1 µM was determined as 1.31 h. The compound further had an IC50 in data set [1] of 0.2 µM. For the same compound, the CC50 at 48 h in [2] is greater than 250 µM. In addition, the 50% effective concentration (EC50) in the data set with SARS-CoV-2 [3] was determined as 2.4 µM.

Consider `CCn1ccc(-c2cc(-c3cnn(C)c3)cc([C@@H](C)NC(=O)c3ccccc3CCC(=O)NCCC#N)c2)n1`, for which the IC50 in data set [1] is greater than 10 µM. Further, in [2], half-maximal cytotoxicity (CC50 at 48 h) was put at 146 µM.

`CCn1ccc(-c2cc(-c3cnn(C)c3)cc([C@@H](C)NC(=O)c3ccccc3CCC(=O)NNC(=O)C34CC(C3)C4)c2)n1` showed a CC50 at 48 h in [2] greater than 250 µM.

Regarding `CCn1ccc(-c2cc(-c3cnn(C)c3)cc([C@@H](C)NC(=O)c3ccccc3CCC(=O)NNC(=O)/C=C/C(=O)N3CC(F)C3)c2)n1`, the half-life at 1 µM in [4] was 1.3 h. Besides, in data set [1], half-maximal inhibition (IC50) required 0.1 µM. This compound also gave a CC50 at 48 h in [2] greater than 250 µM. This compound gave an EC50 in the data set on SARS-CoV-2 [3] of 0.935 µM.

For `CCn1ccc(-c2cc(-c3cnn(C)c3)cc([C@@H](C)NC(=O)c3ccccc3CCC(=O)NCC(=O)CF)c2)n1`, the CC50 at 48 h in [2] was greater than 250 µM.

For the compound `CCn1ccc(-c2cc(-c3cnn(C)c3)cc([C@@H](C)NC(=O)c3ccccc3CCC(=O)NNC(=O)/C=C/C(=O)N3CC(C)(C)C3)c2)n1`, in data set [4], the half-life at 1 µM was found to be 1.4 h. The Cmax in data set [5] was less than 10 ng/mL; in data set [17], 995 ng/mL. The CC50 at 48 h in data set [2] is greater than 250 µM. The compound further had an AUClast in data set [16] of 2513 ng·h/mL.
